Read-outs that look alike come from different tables or passages of the source.
Legend:
[1] = biological target: T1, JARID1B (Homo sapiens, UniProt Q9UGL1); assay: FLAG-JARID1B histone demethylase assay with AlphaScreen detection (HTS and dose response); type: biochemical; settings: for Assay − Artifact Signal (percent): assay signal minus artifact signal; for inhibition at 20 µM: read-out: Inhibitory effect (percent); for Assay Signal (percent) / Validation result of HTS active: effect of the compound in the JARID1B AlphaScreen demethylase assay: validation of HTS actives; for Assay Signal (percent): effect of compound in JARID1B AlphaScreen assay; for Validation result of HTS active: effect of the compound in the JARID1B AlphaScreen demethylase assay: total signal before subtraction of artifact signal;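 on Assay Signal (percent): compound tested at 20 µM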;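 on Assay − Artifact Signal (percent): compound tested at 20 µM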;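 on all read-outs here: FLAG-tagged JARID1B at 4 nM acting on a biotinylated H3K4me3 peptide, demethylation read by AlphaScreen luminescence, with hits checked against bio-H3K4me2 without enzyme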
T1 construct: The FLAG tagged full length JARID1B enzyme was expressed in Sf21 insect cells using FLAG-JARID1B baculoviruses; FLAG (N); made in house; host or cells: Sf21 insect cells (baculovirus)
T1 sequence (Q9UGL1 whole entry): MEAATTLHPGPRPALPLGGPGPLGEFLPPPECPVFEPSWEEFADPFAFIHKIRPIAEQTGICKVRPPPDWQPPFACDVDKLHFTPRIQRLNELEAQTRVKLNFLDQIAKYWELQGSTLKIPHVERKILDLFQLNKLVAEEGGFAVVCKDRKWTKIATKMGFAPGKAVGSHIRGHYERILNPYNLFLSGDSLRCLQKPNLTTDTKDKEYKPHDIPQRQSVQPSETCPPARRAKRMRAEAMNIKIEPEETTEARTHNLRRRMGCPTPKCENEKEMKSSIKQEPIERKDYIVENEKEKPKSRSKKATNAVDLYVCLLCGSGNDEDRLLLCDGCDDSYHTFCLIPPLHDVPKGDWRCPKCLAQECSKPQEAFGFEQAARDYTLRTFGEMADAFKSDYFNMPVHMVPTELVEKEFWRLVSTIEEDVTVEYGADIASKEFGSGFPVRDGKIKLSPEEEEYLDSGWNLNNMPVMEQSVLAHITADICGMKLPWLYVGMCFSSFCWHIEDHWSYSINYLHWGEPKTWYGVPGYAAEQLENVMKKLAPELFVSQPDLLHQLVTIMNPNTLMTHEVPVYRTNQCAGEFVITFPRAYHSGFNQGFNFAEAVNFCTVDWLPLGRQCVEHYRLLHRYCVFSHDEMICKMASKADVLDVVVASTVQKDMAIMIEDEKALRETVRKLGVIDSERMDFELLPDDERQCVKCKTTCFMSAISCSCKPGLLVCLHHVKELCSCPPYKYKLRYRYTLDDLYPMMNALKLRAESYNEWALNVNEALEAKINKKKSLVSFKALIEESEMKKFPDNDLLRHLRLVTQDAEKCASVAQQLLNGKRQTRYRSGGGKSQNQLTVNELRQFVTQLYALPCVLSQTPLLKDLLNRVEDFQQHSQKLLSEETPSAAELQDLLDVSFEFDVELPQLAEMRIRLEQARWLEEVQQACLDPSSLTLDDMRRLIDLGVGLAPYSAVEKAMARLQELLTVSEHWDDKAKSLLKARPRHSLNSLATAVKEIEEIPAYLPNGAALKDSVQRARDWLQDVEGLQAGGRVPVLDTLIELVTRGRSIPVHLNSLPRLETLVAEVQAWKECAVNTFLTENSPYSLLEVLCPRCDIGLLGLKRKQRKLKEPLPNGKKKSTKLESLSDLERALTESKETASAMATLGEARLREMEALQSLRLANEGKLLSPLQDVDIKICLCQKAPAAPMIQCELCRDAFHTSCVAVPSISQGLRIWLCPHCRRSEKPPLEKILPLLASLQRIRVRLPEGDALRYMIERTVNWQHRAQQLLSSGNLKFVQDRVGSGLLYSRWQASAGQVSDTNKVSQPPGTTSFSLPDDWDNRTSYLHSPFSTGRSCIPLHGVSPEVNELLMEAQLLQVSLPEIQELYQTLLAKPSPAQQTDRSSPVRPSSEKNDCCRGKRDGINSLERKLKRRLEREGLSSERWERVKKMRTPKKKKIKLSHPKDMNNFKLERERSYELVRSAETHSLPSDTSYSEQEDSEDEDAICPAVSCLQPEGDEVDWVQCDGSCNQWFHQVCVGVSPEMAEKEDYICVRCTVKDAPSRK

[2] = AlphaScreen counterscreen against bio-H3K4me2 peptide in the absence of enzyme (artifact signal); settings: for Artifact Signal (percent): effect of the compound when incubated with bio-H3K4me2 peptide (counterscreen, no enzyme); for Artifact signal: effect of the compound when it is incubated with bio-H3K4me2 peptide: counterscreen, no enzyme;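 on all read-outs here: counterscreen run without enzyme against bio-H3K4me2 peptide to remove false positive hits from the JARID1 demethylase AlphaScreen screen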
[3] = high-throughput screen, compound 20 μM, standard demethylase conditions (10 μM α-KG, 50 μM Fe (II))
[4] = high-throughput screen, compound 20 μM, IDs marked *: additional hits under reaction condition with 1 mM α-KG

| SMILES | Assay − Artifact Signal (percent) [1] [%] | inhibition at 20 µM [1, 3] [%] | Assay Signal (percent) [1] [%] | Artifact Signal (percent) [2] [%] | Validation result of HTS active: effect of the compound in the JARID1B AlphaScreen demethylase assay [1] | Artifact signal: effect of the compound when it is incubated with bio-H3K4me2 peptide [2] | inhibition at 20 µM [1, 4] [%] | Inhibitory effect (percent) [1, 3] [%] |
| --- | --- | --- | --- | --- | --- | --- | --- | --- |
| N#CC(=Cc1ccncc1)c1nc2cc(C(F)(F)F)ccc2s1 (single isomer, unassigned) [YU153803] | 99.03 | 90.8 | 93.75 | −5.27 | – | – | – | – |
| N#CC(=Cc1ccc(O)c(O)c1)C(N)=O (single isomer, unassigned) [YU154833, TYRPHOSTIN 46, reference compound] | 46.11 | 76.8 | 50.42 | 4.32 | – | – | – | – |
| N#CC(=Cc1ccc(O)c(O)c1)C(N)=S (single isomer, unassigned) [YU154834, TYRPHOSTIN 47, reference compound] | 21.75 | 46.5 | 40.23 | 18.48 | – | – | – | – |
| N#CC(=Cc1cc(O)c(O)c(O)c1)C(N)=C(C#N)C#N (single isomer, unassigned) [YU154835, TYRPHOSTIN 51, reference compound] | 23.04 | 69.7 | 46.05 | 23.01 | – | – | – | – |
| Cc1ccc(S(=O)(=O)C=CC#N)cc1 (single isomer, unassigned) [YU154885, BAY 11-7082, reference compound] | 41.45 | 43.6 | 35.57 | −5.88 | – | – | – | – |
| COC1=CC(=O)C(O)=CC1=CC=Cc1ccccc1 (single isomer, unassigned) [YU155007, OBTUSAQUINONE, reference compound] | 43.75 | 48.7 | 51.64 | 7.90 | – | – | – | – |
| O=C(O)C=Cc1ccc(O)c(O)c1 (single isomer, unassigned) [YU155280, CAFFEIC ACID, reference compound] | – | 67.3 | – | −1.92 | – | – | – | – |
| C=NC(C(=O)N[C@H]1C(=O)N2C1SC(C)(C)C2C(=O)O)c1ccccc1 (stereo in doubt) [YU034263, METAMPICILLIN SODIUM, reference compound] | 24.14 | 95.6 | 24.27 | 0.13 | 3.14 | 0.44 | – | – |
| O=C(OC[C@H]1O[C@@H](OC(=O)c2cc(O)c(O)c(OC(=O)c3cc(O)c(O)c(O)c3)c2)[C@H](OC(=O)c2cc(O)c(O)c(OC(=O)c3cc(O)c(O)c(O)c3)c2)[C@@H](OC(=O)c2cc(O)c(O)c(OC(=O)c3cc(O)c(O)c(O)c3)c2)[C@@H]1OC(=O)c1cc(O)c(O)c(OC(=O)c2cc(O)c(O)c(O)c2)c1)c1cc(O)c(O)c(OC(=O)c2cc(O)c(O)c(O)c2)c1 (stereo in doubt) [YU034398, TANNIC ACID, reference compound] | – | 105 | – | – | 104.83 | 99.54 | – | – |
| COc1cccc2c1C(=O)c1c(O)c3c(c(O)c1C2=O)C[C@@](O)(C(=O)CO)C[C@@H]3O[C@H]1C[C@H](N)[C@@H](O)[C@H](C)O1.Cl (stereo in doubt) [YU039604, EPIRUBICIN HYDROCHLORIDE, reference compound] | – | 81.9 | – | – | 10.74 | 3.76 | – | – |
| COc1cccc2c1C(=O)c1c(O)c3c(c(O)c1C2=O)C[C@@](O)(C(=O)CO)C[C@@H]3O[C@H]1C[C@H](N)[C@H](O)[C@H](C)O1.Cl (stereo in doubt) [YU039629, DOXORUBICIN HYDROCHLORIDE, reference compound] | – | 80.3 | – | – | 8.94 | 3.92 | – | – |
| CC(=O)[C@]1(O)Cc2c(O)c3c(c(O)c2[C@@H](O[C@H]2C[C@H](N)[C@H](O)[C@H](C)O2)C1)C(=O)c1ccccc1C3=O.Cl (stereo in doubt) [YU040321, IDARUBICIN HCl, reference compound] | – | 92.3 | – | – | −11.32 | −9.53 | – | – |
| O=C(OC[C@H]1O[C@@H](OC(=O)c2cc(O)c(O)c(OC(=O)c3cc(O)c(O)c(O)c3)c2)[C@H](OC(=O)c2cc(O)c(O)c(OC(=O)c3cc(O)c(O)c(O)c3)c2)[C@@H](OC(=O)c2cc(O)c(O)c(OC(=O)c3cc(O)c(O)c(O)c3)c2)[C@@H]1OC(=O)c1cc(O)c(O)c(OC(=O)c2cc(O)c(O)c(O)c2)c1)c1cc(O)c(O)c(OC(=O)c2cc(O)c(O)c(O)c2)c1 (stereo in doubt) [YU153507, TANNIC ACID, reference compound] | – | – | – | – | 105.15 | 99.80 | – | – |
| O=C(O[C@@H]1Cc2c(O)cc(O)cc2O[C@@H]1c1cc(O)c(O)c(O)c1-c1c([C@H]2Oc3cc(O)cc(O)c3C[C@H]2OC(=O)c2cc(O)c(O)c(O)c2)cc(O)c(O)c1O)c1cc(O)c(O)c(O)c1 (stereo in doubt) [YU155084, 2,2-BISEPIGALLO- CATECHIN DIGALLATE, reference compound] | – | 102 | – | – | 98.89 | 91.60 | – | – |
| CN[C@@H]1[C@H](O[C@H]2O[C@H](CO)[C@@H](N)[C@H](O)[C@H]2O)O[C@H]2C[C@@H](N)[C@H](O[C@@H]3[C@H](O)[C@@H](O)[C@H](N)C[C@@H]3N)O[C@@H]2[C@@H]1O (stereo in doubt) [YU155086, APRAMYCIN, reference compound] | – | – | – | – | −19.45 | −4.67 | 43.2 | – |
| O=C(O[C@@H]1Cc2c(O)cc(O)cc2O[C@@H]1c1cc(O)c(=O)c2c(O)c(O)cc([C@H]3Oc4cc(O)cc(O)c4C[C@H]3OC(=O)c3cc(O)c(O)c(O)c3)c2c1)c1cc(O)c(O)c(O)c1 (stereo in doubt) [YU155100, THEAFLAVIN DIGALLATE, reference compound] | – | 105 | – | – | 104.28 | 98.76 | – | – |
| O=C(O)c1cc(O)c2c(c1)[C@@H]([C@H]1c3cc(C(=O)O)cc(O)c3C(=O)c3c(O[C@H]4O[C@H](CO)[C@@H](O)[C@H](O)[C@H]4O)cccc31)c1cccc(O[C@H]3O[C@H](CO)[C@@H](O)[C@H](O)[C@H]3O)c1C2=O (stereo in doubt) [YU155201, SENNOSIDE A, reference compound] | – | 60 | – | – | 72.27 | 68.65 | – | – |
| O=C(O)c1cc(O)c2c(c1)[C@H]([C@H]1c3cc(C(=O)O)cc(O)c3C(=O)c3c(O[C@@H]4O[C@H](CO)[C@H](O)[C@H](O)[C@H]4O)cccc31)c1cccc(O[C@@H]3O[C@H](CO)[C@H](O)[C@H](O)[C@@H]3O)c1C2=O (stereo in doubt) [YU155305, SENNOSIDE B, reference compound] | – | 105 | – | – | 4.04 | −0.34 | – | – |
| O=C(O)CC(CC(=O)Nc1cc(C(F)(F)F)ccc1N1CCOCC1)c1ccccc1 (stereo not drawn) [YU016748] | 8.43 | 104 | 19.64 | 11.20 | – | – | – | – |
| NS(=O)(=O)c1cccc(NC(=O)c2cccnc2Oc2ccccc2)c1 [YU016812] | – | 34.2 | – | – | 10.22 | 13.27 | – | – |
| O=C1c2ccccc2C(=O)c2c(NCCc3ccc(O)cc3)ccc(NCCc3ccc(O)cc3)c21 [YU019467, BML-266, reference compound] | 20.91 | – | 76.09 | 55.18 | – | – | 42.1 | – |
| CC(C)=CCc1c2c(c3occ(-c4ccc(O)c(O)c4)c(=O)c3c1O)C=CC(C)(C)O2 [YU033628, POMIFERIN, reference compound] | – | – | – | – | 6.60 | 13.55 | – | 68.25 |

— patent US20150272939A1, “Identification of Small Molecule Inhibitors of Jumonji AT-Rich Interactive Domain 1A (JARID1A) and 1B (JARID1B) Histone Demethylase” (Yale University, priority 2012, published 2015)
